Source: patent publication US11512069B2, “TLR7/8 antagonists and uses thereof” (Merck Patent GmbH, priority 2016, dated 2022)

target: T1, TLR7 (Homo sapiens, UniProt Q9NYK1); assay: HEK Cell Assay (TLR7/NFKb HEK reporter cells, Steady-Glo); assay type: cell-based; conditions: compound 30 min, then R*48 agonist 5 hours, Steady-Glo readout, read-out: Potency
T1 construct: expressed in transfected cells; host or cells: HEK cells carrying TLR7 and an NF-kB reporter read with Steady-Glo
T1 sequence (Q9NYK1 27-1049): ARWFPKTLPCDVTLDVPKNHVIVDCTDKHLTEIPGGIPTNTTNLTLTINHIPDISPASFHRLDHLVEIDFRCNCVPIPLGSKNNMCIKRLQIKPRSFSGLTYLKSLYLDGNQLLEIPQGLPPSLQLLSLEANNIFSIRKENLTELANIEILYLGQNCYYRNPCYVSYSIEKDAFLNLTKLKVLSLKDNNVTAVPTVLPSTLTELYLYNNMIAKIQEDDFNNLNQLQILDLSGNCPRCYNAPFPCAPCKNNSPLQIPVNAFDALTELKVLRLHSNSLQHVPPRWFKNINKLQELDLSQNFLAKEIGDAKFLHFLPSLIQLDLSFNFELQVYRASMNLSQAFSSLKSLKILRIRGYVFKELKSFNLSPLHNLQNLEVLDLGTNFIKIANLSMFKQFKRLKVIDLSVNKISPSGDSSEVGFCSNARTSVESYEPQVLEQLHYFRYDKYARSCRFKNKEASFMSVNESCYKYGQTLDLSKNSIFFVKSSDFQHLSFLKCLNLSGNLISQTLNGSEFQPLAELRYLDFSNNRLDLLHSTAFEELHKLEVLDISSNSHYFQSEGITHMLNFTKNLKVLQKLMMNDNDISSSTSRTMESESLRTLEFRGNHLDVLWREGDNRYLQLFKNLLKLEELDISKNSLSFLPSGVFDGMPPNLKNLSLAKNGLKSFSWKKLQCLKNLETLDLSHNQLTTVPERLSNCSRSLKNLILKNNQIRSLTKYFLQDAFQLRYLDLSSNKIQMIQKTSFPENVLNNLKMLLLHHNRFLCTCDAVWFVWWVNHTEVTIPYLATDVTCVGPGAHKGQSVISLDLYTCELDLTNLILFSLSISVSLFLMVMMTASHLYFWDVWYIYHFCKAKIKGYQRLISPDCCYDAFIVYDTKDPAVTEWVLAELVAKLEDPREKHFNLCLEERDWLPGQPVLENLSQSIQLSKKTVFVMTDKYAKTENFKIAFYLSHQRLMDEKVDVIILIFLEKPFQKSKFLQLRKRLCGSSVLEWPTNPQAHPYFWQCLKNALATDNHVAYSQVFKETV
Procedure: Example 32: HEK Cell Assay
Into 384 CulturePlates (Corning 3707) was placed 5000 c/w of TLR7/NFKb HEK cells in 30 uL DMEM without Phenil red (gibco #31053) and 10% i.a. FCS and 2 mM L-ZGLutamin. The cells were incubated for 24 h at 37 degrees Celsius, 10% carbon dioxide and 90% relative humidity, 3 uL of controls, standards, and compounds were dispensed to wells, incubated for 30 min then 3 uL of R*48 agonist in 20 mM Hepes was added. After incubation for 5 hours, it was allowed to stand at room temperature for 15 min, 10 uL of Steady-Glo substrate reagent was added and shake assay plate for 5 min at 1500 rpm. The assay plate was allowed to sit for 30 min at room temperature and then read plate on EnVision.

Structure (SMILES) | IC50
C[C@@H]1C[C@H](c2ccc(C#N)c3ncccc23)CN(C(=O)CN2CCC2)C1 (relative stereo) [Compound 33] | 1 to 20 µM
CC1CC(c2ccc(C(F)(F)F)c3ncccc23)CN(c2cnn(C)c2)C1 (centres unmarked) [Compound 58, 5-[5-Methyl-1-(1-methyl-1H-pyrazol-4-yl)-piperidin-3-yl]-8-trifluoromethyl-quinoline] | 1 to 20 µM
C[C@@H]1CC(c2ccc(C#N)c3ncccc23)CN(C(=O)CC2CCN(C)CC2)C1 (some centres unmarked) [Compound 2] | < 1 µM
C[C@@H]1C[C@H](c2ccc(C(F)(F)F)c3ncccc23)CN(C(=O)CN2CCOCC2)C1 (relative stereo) [Compound 16] | > 20 µM
C[C@@H]1C[C@H](c2ccc(C#N)c3ncccc23)CN(C(N)=O)C1 [Compound 118, (3R,5R)-3-(8-Cyano-quinolin-5-yl)-5-methyl-piperidine-1-carboxylic acid amide] | 1 to 20 µM
C[C@@H]1C[C@H](c2ccc(C#N)c3ncccc23)CN(C(=O)CC2CC2)C1 (relative stereo) [Compound 28, Cis 5-[1-(2-Cyclopropyl-acetyl)-5-methyl-piperidin-3-yl]-quinoline-8-carbonitrile] | 1 to 20 µM
C[C@H]1C[C@@H](c2ccc(C(F)(F)F)c3ncccc23)CN(C(=O)CC2CCN(C)CC2)C1 [Compound 43, 2-(1-Methyl-piperidin-4-yl)-1-[(3S,5S)-3-methyl-5-(8-trifluoromethyl-quinolin-5-yl)-piperidin-1-yl]-ethanone] | 1 to 20 µM
C[C@@H]1C[C@H](c2ccc(C(F)(F)F)c3ncccc23)CN(CCO)C1 (relative stereo) [Compound 7] | > 20 µM
CC1CC(c2ccc(C#N)c3ncccc23)CN(CC2CCN(C)CC2)C1 (centres unmarked) [Compound 52] | < 1 µM
C[C@@H]1C[C@H](N)C[C@H](c2ccc(C(F)(F)F)c3nccnc23)C1 [Compound 142, (1S,3S,5R)-3-methyl-5-(8-(trifluoromethyl)quinoxalin-5-yl)cyclohexanamine] | < 1 µM
C[C@@H]1C[C@H](c2ccc(C#N)c3ncccc23)CN(C(=O)CN2CCN(C)CC2)C1 [Compound 97, 5-((3R,5R)-5-Methyl-1-[2-(4-methyl-piperazin-1-yl)-acetyl]-piperidin-3-yl}-quinoline-8-carbonitrile] | < 1 µM
CC1C[C@@H](c2ccc(C(F)(F)F)c3ncccc23)CN(C(=O)CN2CCOCC2)C1 (some centres unmarked) [Compound 17] | > 20 µM
C[C@@H]1C[C@@H](c2ccc(C#N)c3ncccc23)CN(CC(=O)Nc2cnn(C)c2)C1 (relative stereo) [Compound 77, trans-2-[3-(8-Cyano-quinolin-5-yl)-5-methyl-piperidin-1-yl]-N-(1-methyl-1H-pyrazol-4-yl)-acetamide] | > 20 µM
Cc1ncc([C@H]2C[C@@H](C)CN(C(=O)CC3CCN(C)CC3)C2)c2cccnc12 [Compound 95, 1-[(3R,5R)-3-Methyl-5-(8-methyl-[1,7]naphthyridin-5-yl)-piperidin-1-yl]-2-(1-methyl-piperidin-4-yl)-ethanone] | 1 to 20 µM
CC(C)[C@H](O)C(=O)N[C@@H]1C[C@H](C)C[C@H](c2ccc(C#N)c3nccnc23)C1 [Compound 125, (S)—N-((1R,3S,5R)-3-(8-cyanoquinoxalin-5-yl)-5-methylcyclohexyl)-2-hydroxy-3-methylbutanamide] | < 1 µM
C[C@@H]1C[C@@H](c2ccc(C#N)c3ncccc23)CN(CC(=O)NCC2CCN(C)CC2)C1 (relative stereo) [Compound 75, trans-2-[3-(8-Cyano-quinolin-5-yl)-5-methyl-piperidin-1-yl]-N-(1-methyl-piperidin-4-ylmethyl)-acetamide] | 1 to 20 µM

Second part, the compound after the results:

IC50 | Structure (SMILES)
1 to 20 µM | C[C@@H]1C[C@H](c2ccc(C#N)c3ncccc23)CN(C(=O)c2cnn(C)c2)C1 (relative stereo) [Compound 108, cis-5-Methyl-1-(1-methyl-H-pyrazole-4-carbonyl)-piperidin-3-yl-quinoline-8-carbonitrile]
> 20 µM | CC(=O)N1C[C@@H](C)C[C@H](c2ccc(C(F)(F)F)c3ncccc23)C1 (relative stereo) [Compound 9, trans-1-[3-Methyl-5-(8-trifluoromethyl-quinolin-5-yl)-piperidin-1-yl]-ethanone]
> 20 µM | C[C@@H]1C[C@H](c2ccc(C(F)(F)F)c3ncccc23)CN(C(=O)Cn2cccn2)C1 (relative stereo) [Compound 14]
1 to 20 µM | C[C@@H]1C[C@H](c2ccc(C#N)c3ncccc23)CN(C(=N)N)C1 [Compound 119, (3R,5R)-3-(8-Cyano-quinolin-5-yl)-5-methyl-piperidine-1-carboxamidine]
1 to 20 µM | CC1CC(c2ccc(C#N)c3ncccc23)CN(C(=O)NCC2CC(F)(F)C2)C1 (centres unmarked) [Compound 110, 3-(8-Cyano-quinolin-5-yl)-5-methyl-piperidine-1-carboxylic acid (3,3-difluoro-cyclobutylmethyl)-amide]
1 to 20 µM | C[C@@H]1C[C@H](c2ccc(C#N)c3ncccc23)CN(C(=O)CN2CCC3(CC2)CNC3)C1 [Compound 117, 5-[(3R,5R)-1-(2-2,7-Diaza-spiro[3.5]non-7-yl-acetyl)-5-methyl-piperidin-3-yl]-quinoline-8-carbonitrile]
> 20 µM | C[C@@H]1C[C@H](c2ccc(C#N)c3ncccc23)CN(C(=O)C2(N)CC2)C1 [Compound 98, 5-[(3R,5R)-1-(1-Amino-cyclopropanecarbonyl)-5-methyl-piperidin-3-yl]-quinoline-8-carbonitrile]
> 20 µM | COCCN[C@@H]1C[C@H](C)C[C@H](c2ccc(C(F)(F)F)c3nccnc23)C1 [Compound 147, (1R,3R,5S)—N-(2-methoxyethyl)-3-methyl-5-(8-(trifluoromethyl)quinoxalin-5-yl)cyclohexanamine]
< 1 µM | C[C@H]1C[C@@H](NC(=O)CN2CCN(C)CC2)C[C@@H](c2ccc(C#N)c3nccnc23)C1 (racemic) [Compound 158, N-[(cis-1,3,5)-3-(8-cyanoquinoxalin-5-yl)-5-methylcyclohexyl]-2-(4-methylpiperazin-1-yl)acetamide]
1 to 20 µM | C[C@@H]1C[C@H](c2cc(F)c(C#N)c3ncccc23)CN(C(=O)CC2CCN(C)CC2)C1 [Compound 85, 7-Fluoro-5-{(3R,5R)-5-methyl-1-[2-(1-methyl-piperidin-4-yl)-acetyl]-piperidin-3-yl}-quinoline-8-carbonitrile]
< 1 µM | COc1ccc([C@H]2C[C@@H](C)CN(C(=O)CC3CCN(C)CC3)C2)c2cccnc12 [Compound 87, 1-[(3R,5R)-3-(8-Methoxy-quinolin-5-yl)-5-methyl-piperidin-1-yl]-2-(1-methyl-piperidin-4-yl)-ethanone]
> 20 µM | C[C@@H]1C[C@H](c2ccc(C#N)c3ncccc23)CN(C(=O)CCc2cccnc2)C1 (relative stereo) [Compound 24]
1 to 20 µM | C[C@@H]1C[C@@H](c2ccc(C(F)(F)F)c3ncccc23)CN(C(=O)NC2CC2)C1 (relative stereo) [Compound 41, trans-Cyclopropyl-3-methyl-5-[8-(trifluoromethyl)-5-quinolyl] piperidine-1-carboxamide]
< 1 µM | CC(C)N1CCC(CC(=O)N2C[C@H](C)C[C@H](c3ccc(C#N)c4ncccc34)C2)CC1 [Compound 46, 5-{(3R,5R)-1-[2-(1-Isopropyl-piperidin-4-yl)-acetyl]-5-methyl-piperidin-3-yl}-quinoline-8-carbonitrile]
> 20 µM | C[C@@H]1C[C@H](c2ccc(C#N)c3ncccc23)CN(CC(=O)Nc2cnn(C)c2)C1 (relative stereo) [Compound 76, cis-2-[3-(8-Cyano-quinolin-5-yl)-5-methyl-piperidin-1-yl]-N-(1-methyl-1H-pyrazol-4-yl)-acetamide]
1 to 20 µM | Cc1ncc([C@@H]2C[C@@H](C)CN(C(=O)CC3CCN(C)CC3)C2)c2cccnc12 [Compound 94, 1-[(3R,5S)-3-Methyl-5-(8-methyl-[1,7]naphthyridin-5-yl)-piperidin-1-yl]-2-(1-methyl-piperidin-4-yl)-ethanone]
